The results in this text go back to patent publication US20030130287A1, “Piperidine and piperazine derivatives which function as 5-ht2a receptor antagonists” (priority 2000, published 2003).

Where a name gives a salt, the structure may show the parent alone.

System in one series: not given
Assay: not given
Conditions: not given
Consider `Fc1ccc(CCN2CCC(Sc3cccc(Cl)n3)CC2)cc1` (as salt: hydrochloride) [Example 2, 2-chloro-6-{1-[2-(4-fluorophenyl)ethyl]piperidin-4-ylsulfanyl}pyridine], for which the melting point – broadly, the temperature, or range, at which the solid turns liquid – is 237 to 240 °C.
On the same count and under the same terms, the result for `[O-][S+](c1cccc(Cl)n1)C1CCN(CCc2ccc(F)cc2)CC1` (stereo not shown) (as salt: hydrochloride) [Example 3, 2-chloro-6-{1-[2-(4-fluorophenyl)ethyl]piperidine-4-sulfinyl}pyridine] reads 208 °C.
Still for that read-out and setting: next, `O=S(=O)(c1cccc2cccnc12)N1CCN(CCc2ccc(F)cc2)CC1` (as salt: hydrochloride) [compound 1, 4-(8-Quinolinesulfonyl)-1-[2-(4-fluorophenyl)ethyl]piperazine]: 141 °C.

The target in the next series is T1, 5-HT2A receptors (Rattus norvegicus, UniProt P14842).
T1 construct: Frontal rat cortex is homogenized in ice-cold buffer; from tissue; host or cells: rat frontal cortex homogenate (membrane pellet)
T1 sequence (P14842 whole entry): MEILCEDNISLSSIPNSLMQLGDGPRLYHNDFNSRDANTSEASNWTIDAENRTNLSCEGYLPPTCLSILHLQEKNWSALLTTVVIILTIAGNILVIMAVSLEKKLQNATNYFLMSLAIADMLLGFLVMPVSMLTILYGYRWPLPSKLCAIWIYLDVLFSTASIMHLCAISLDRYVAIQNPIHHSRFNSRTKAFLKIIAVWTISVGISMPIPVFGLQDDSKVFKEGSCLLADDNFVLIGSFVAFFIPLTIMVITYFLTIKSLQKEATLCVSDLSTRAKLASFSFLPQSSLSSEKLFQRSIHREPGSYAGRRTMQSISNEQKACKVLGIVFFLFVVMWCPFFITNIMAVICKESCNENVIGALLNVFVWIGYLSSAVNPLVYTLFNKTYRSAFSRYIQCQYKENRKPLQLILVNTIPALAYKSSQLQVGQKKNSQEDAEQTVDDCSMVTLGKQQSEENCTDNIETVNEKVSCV
Put plainly: [3H]ketanserine displacement at 5-HT2A receptors (Example A1). Type of series: binding. As to conditions: frontal rat cortex homogenate, 15 minutes at 37° C. The method, then: For the in-vitro detection of affinity to 5-HT2A receptors, the following test (Example A1), for example, can be used. The 5-HT2A receptors are exposed both to [^3H]ketanserine (a substance which is known for its affinity to the receptor) and also to the test compound. The decrease in the affinity of [^3H]ketanserine to the receptor is an indication of the affinity of the test substance to the 5-HT2A receptor. The detection is carried out analogously to the description by J. E. Leysen et al., Molecular Pharmacology, 1982, 21: 301-314, or as also described, for example, in EP 0320983.
Preparation of a Suspension of 5-HT2A Receptors:
Frontal rat cortex is homogenized in ice-cold buffer. The homogenate is centrifuged for 10 minutes at 4° C. and 50,000 X. The pellet is re-suspended in 2.5 ml of ice-cold tris buffer, made up to 10 ml with additional buffer and centrifuged as described. The pellet is then re-suspended in buffer and diluted to give a homogenate comprising 60 mg of material/ml. 0.1 ml of the suspension, 100 μl of a 5 nM solution of [^3H]ketanserine and 100 μl of a solution of the test compound (concentration in the range from 10^−5 to 10^−10 mol per litre) are introduced into the incubation tubes and made up to 1 ml with buffer. The tubes are incubated for 15 minutes at 37° C. After the incubation has been terminated by dipping the tubes into an ice bath, the cooled suspension is filtered through a glass filter under reduced pressure. The filters are washed 3× with 5 ml of cold buffer and then transferred into scintillation tubes. The filters are analysed by liquid scintillation spectrometry in 8 ml of Triton-X scintillator liquid.
With `O=S(=O)(c1cccc2cccnc12)N1CCN(CCc2ccc(F)cc2)CC1` [compound 1, 4-(8-Quinolinesulfonyl)-1-[2-(4-fluorophenyl)ethyl]piperazine], the IC50 (as a rule, the point on the concentration scale where inhibition reaches its midpoint) stood at 1.3 nM.
On the same count and under the same terms, next, `O=S(=O)(c1cccc2ccccc12)N1CCN(CCc2ccc(F)cc2)CC1` [compound 2, 4-(1-Naphthylsulfonyl)-1-[2-(4-fluorophenyl)ethyl]piperazine]: 8.1 nM.
Take `O=S(=O)(c1ccc(F)cc1)N1CCN(CCc2ccc(F)cc2)CC1` [compound 3, 4-(4-Fluorophenylsulfonyl)-1-[2-(4-fluorophenyl)ethyl]piperazine]: the IC50 was 25 nM.
`CC(=O)Nc1cccc2c(S(=O)(=O)N3CCN(CCc4ccc(F)cc4)CC3)cccc12` [compound 4, 4-(5-Acetamidonaphth-1-yl-sulfonyl)-1-[2-(4-fluorophenyl)ethyl]piperazine] yielded an IC50 of 7.4 nM.
The same measure, in the same setting: next, `O=S(=O)(c1cccc2nonc12)N1CCN(CCc2ccc(F)cc2)CC1` [compound 5, 4-(2,1,3-Benzoxadiazol-4-ylsulfonyl)-1-[2-(4-fluorophenyl)ethyl]piperazine]: 44 nM; `O=[N+]([O-])c1ccccc1S(=O)(=O)N1CCN(CCc2ccc(F)cc2)CC1` [compound 6, 4-(2-Nitrophenylsulfonyl)-1-[2-(4-fluorophenyl)ethyl]piperazine]: 9.2 nM.
On to `O=S(=O)(c1ccc2c(c1)CCN2)N1CCN(CCc2ccc(F)cc2)CC1` [compound 7, 4-(2,3-Dihydro-1H-indole-5-sulfonyl)-1-[2-(4-fluorophenyl)ethyl]piperazine], for which the IC50 worked out at 13 nM.
Still for that read-out and setting: next, `N#Cc1c[nH]c2ccc(S(=O)(=O)N3CCN(CCc4ccc(F)cc4)CC3)cc12` [compound 8, 4-(3-Cyano-1H-indole-5-sulfonyl)-1-[2-(4-fluorophenyl)ethyl]piperazine]: 1.6 nM; `O=S(=O)(c1ccc(F)cc1)C1CCN(CCc2ccc(F)cc2)CC1` [compound 9, 4-(4-Fluorophenylsulfonyl)-1-(2-(4-fluorophenyl)ethyl]piperidine]: 2.1 nM.
On the same count and under the same terms, the result for `O=S(=O)(c1cccc(Cl)n1)C1CCN(CCc2ccc(F)cc2)CC1` [compound 10, 2-Chloro-6-{1-[2-(4-fluorophenyl)ethyl]piperidin-4-sulfonyl}pyridine] reads 0.6 nM.
